These results are taken from US6589759B1, “Compositions and methods for producing platelets and/or proplatelets from megakaryocytes” (Trustees of Boston University, priority 1999, dated 2003).

Assay [1] concerns Meg-01 cells. The experiment in a line: Platelet-sized particle production from Meg-01 cells by flow cytometry (GPIIIa positive). Type of assay: cell-based, human. As to conditions: for production of GPIIIa positive platelet-sized particles: Meg-01 cells pretreated with 100 ng/ml thrombopoietin for 72 hours, then 100 μM SNO-glu for 2 hours. How it is done: The production of platelet-sized particles in the Meg-01 cell line using flow cytometry was determined. Human megakaryoblastic leukemia cell line Meg-01 was obtained from American Type Culture Collection (Manassas, Va.) and grown in phenol red-free RPMI-1640 media (Gibco-BRL, Grand Island, N.Y.) supplemented with 10% fetal bovine serum at 37° C. in a humidified atmosphere of 5% CO2. The experiment to monitor platelet production by the megakaryocytoid cell line, Meg-01, were performed as follows: 10 ml of Meg-01 cells (1×10^5/ml) were treated with 100 ng/ml of thrombopoietin (TPO, Amgen, Thousand Oaks, Calif.) for 72 hours. The cells were then centrifuged at 1000 rpm for 10 minutes, washed with phosphate buffered saline (PBS) and resuspended in RPMI-1640 media. Meg-01 cells, in the presence and absence of TPO, were treated with 100 μM SNO-glu for 2 hours. The cells were collected by centrifugation (1000 rpm for 10 minutes), washed once in PBS, resuspended in 500 μl of 3% formaldehyde, and allowed to fix for 20 minutes at room temperature. After fixation, 100 μl of cells were labeled with fluorescein isothiocyanate-conjugated (FITC)-conjugated monoclonal mouse anti-human platelet glycoprotein IIIa, CD61 (GPIIIa, DAKO Corp. Carpinteria, Calif.) at a near saturating concentration and incubated at room temperature for 20 minutes. The sample was diluted in 100 μl of PBS and analyzed on a Coulter EPICS XL flow cytometer (Coulter, Miami, Fla.). DNA check flow cytometry beads purchased from Coulter were used for daily instrument calibration. Appropriate color compensation was set for FITC fluorescence and phycoerythrin fluorescence using 525 nm and 575 nm band pass filters, respectively. All data were saved in flow cytometry list mode files and analyzed using Coulter ELITE software, version 2.21. Platelet-sized particles were identified by characteristic log forward light scatter (LFS). Only those particles that bound the anti-GPIIIa-FITC antibody ([…] FITC-conjugated antibody) (Dako, Denmark) were analyzed (by gating the fluorescence signal).
(In general: Flow cytometry measures light scatter and fluorescence of single cells or particles in a stream.)

Assay [2] concerns Meg-01 cells. The experiment in a line: Production of cGMP from megakaryocytes treated with SNO-glu (ELISA). Type of assay: cell-based, human. To be noted: for cGMP: n = 2. On the procedure:
The Meg-01 cells were grown as described in Example 1. The Med-01 cells, in the presence and absence of TPO, were treated with 100 μM SNO-glu for varying lengths of time. The cells were collected by centrifugation (1000 rpm for 10 minutes), and then lysed with 6% trichloroacteic acid (TCA). The cGMP was extracted with distilled water-saturated ether. The cGMP was quantified using the standard ELISA assay (Caymen Chemical Inc., Ann Arbor, Mich.).
In general terms: In an ELISA, binding on a coated surface is turned into a signal by an enzyme label.

For `N[C@@H](CCC(=O)N[C@@H](CSN=O)C(=O)NCC(=O)O)C(=O)O` [SNO-Glu, S-nitroso-glutathione], the “production of GPIIIa positive platelet-sized particles” value is “promoted platelet-like particle formation” in assay [1] (listed as S-nitroso-glutathione) and “enhanced production of GPIIIa positive platelet-sized particles” in assay [1] (listed as SNO-glu). Further, the “formation of GPIIIa positive platelet-sized particles” value in assay [1] (Meg-01 cells, 100 μM SNO-glu for 2 hours, no TPO) is “formation of GPIIIa positive platelet-sized particle population”. Moreover, the cGMP stood at 0.960 pmol cGMP/mg Protein in assay [2] (100 μM SNO-Glu in the presence of TPO, 30 minutes); 263.1 pmol cGMP/mg Protein in assay [2] (100 μM, 5 minutes); 461.2 pmol cGMP/mg Protein in assay [2] (100 μM, 10 minutes); 472.9 pmol cGMP/mg Protein in assay [2] (100 μM, 20 minutes); 611.3 pmol cGMP/mg Protein in assay [2] (100 μM, 30 minutes). The “production of cGMP (in words)” value in assay [2] (Meg-01 cells, 100 μM SNO-glu) is listed as “increased production of cGMP”.

On to “TPO: thrombopoiesis stimulating factor thrombopoietin (TPO, Amgen)”, for which the “effect of added TPO on cGMP production during SNO-glu treatment” value in assay [2] (Meg-01 cells, TPO added during 100 μM SNO-glu treatment) was “completely suppressed the production of cGMP”.
